Results on 35 compounds are retold here after PubChem BioAssay AID652 (University of Pittsburgh Molecular Library Screening Center, 2007).

A word on the IC50: it is the concentration needed to halve the response being measured. For orientation: inhibition means the drop in the measured response relative to a control, in per cent.

Active and inactive are the calls of the source. How the calls were made is not given here.

This experiment deals with Gag-Pol polyprotein (Human immunodeficiency virus type 1 group M subtype B (isolate HXB2)) (UniProt P04585). The experiment is described as follows: concentration-response of HIV-1 RNase H blockers – biochemical, probe assessment, dose response (AID 652). Conditions: HIV-1 RT RNase H enzymatic assay; for inhibition: at 50 µM, stronger effect = higher value.

As for `Nc1c(C(=O)NCc2cccnc2)sc(=S)n1-c1ccccc1`, the IC50 was 2.22 µM and the inhibition was 73.5%. As to `c1cncc(-c2nn3c(Cn4cnc5ccccc54)nnc3s2)c1`, the inhibition came out at 85.4%. Same read-out and setting: the same measure for `COC(=O)N(c1ccc(OC)cc1)P1(=S)OCCC(C)O1` (stereo not drawn): 87.5%; for `CCCCC(CC)Cn1c2nc3ccccc3nc2c2c(=N)oc(C)nc21` (stereo not drawn): 95.5%. As to `Cc1ccc(-c2cc(C(=O)NC3=NCCS3)c3cc(Br)ccc3n2)o1`, the inhibition was found to be 92.4%. As for `CCc1ccccc1N1CSC2=C(C#N)C(c3cc(OC)c(OC)cc3OC)CC(=O)N2C1` (stereo not drawn), the inhibition turned out to be 98.3%. On the same count and under the same terms, the same measure for `COCCn1c(-c2ccc(-c3ccccc3Cl)o2)nc2c1c(=O)[nH]c(=O)n2CC(C)C`: 85%; for `Cc1oc(-c2ccc(Cl)cc2)cc1-c1nn2c(-c3ccoc3C)nnc2s1`: 78.4%. On to `CN(C)c1ccc(N=Cc2c(O)n(CCC3=CCCCC3)c(=O)[nH]c2=O)cc1`, for which the IC50 was 3.8 µM and the inhibition amounted to 80.1%.

As to `COc1ccc(N2CCN(Cc3cc(=O)oc4cc(-c5ccccc5)c(O)cc34)CC2)cc1`, the inhibition worked out at 96.2%. Turning to `Cc1sc2nc(C(C)Nc3ccccc3N3CCOCC3)[nH]c(=O)c2c1C` (stereo not drawn), the inhibition was determined as 66.5%. For the compound `Cc1ccc(/C=C/C2=Cc3c(sc(NC(=O)CSc4n[nH]c(N)n4)c3C#N)C(C)(C)C2)o1`, the inhibition was 91.1%. In the case of `N#CC1=C(N)SC(N)=C(C#N)C1c1ccnc2ccccc12`, the IC50 was 13.7 µM and the inhibition is 70.4%. With `N#Cc1nc(-c2ccc(OCc3ccc(Cl)cc3)cc2)oc1NCc1cccnc1`, the inhibition was found to be 99.4%.

For `O=C(Nc1nc(-c2ccncc2)cs1)C1COc2ccccc2O1` (stereo not drawn), the IC50 was > 50 µM (inactive) and the inhibition was 92.5%. `CCn1c2ccccc2c2nc3cc(S(=O)(=O)N4CCOCC4)ccc3nc21`: the inhibition was 88.9%.

With `CN1CCN(C2=C(Cl)C(=O)N(c3ccc(Cl)c(Cl)c3)C2=O)CC1`, the IC50 is 27.1 µM and the inhibition was 61.9%. `O=C1CC(c2ccccc2)Cc2nc(N3CCc4ccccc43)ncc21` (stereo not drawn): the inhibition amounted to 94.6%. The same measure, in the same setting: the same measure for `CC(C)Cn1c(SCC(=O)NC(=O)Nc2ccc3c(c2)OCCO3)nc2ccccc2c1=O`: 83.9%. For the compound `Oc1ccc(-c2nc(-c3ccc(O)c(O)c3)cs2)cc1`, the IC50 is 2.23 µM and the inhibition is 101%. As for `O=C(CSc1ncn[nH]1)c1ccccc1`, the inhibition was 84.1%.

Take `c1ccc2c(c1)nnn2Cc1nnc2sc(-c3ccncc3)nn12`: the inhibition came to 90.6%. As for `Cc1sc2nc(SCC(=O)NCc3ccco3)n(CCc3ccccc3)c(=O)c2c1C`, the inhibition was 82.4%. The same measure, in the same setting: the same measure for `CC(C)c1ccc2oc(-c3ccc(NC(=O)c4ncn[nH]4)cc3)nc2c1`: 92.7%.

For the compound `CCOc1cc(C2C(C#N)=C(N)SC(N)=C2C#N)ccc1OCCN1CCOCC1`, the IC50 was 31.5 µM and the inhibition worked out at 41.5%. With `CN1CSC2=C(C#N)C(c3cccc(OCc4ccccc4)c3)CC(=O)N2C1` (stereo not drawn), the inhibition was 89.7%.

As to `c1ccc2c(c1)nnn2Cc1nnc2sc(-c3ccc4c(c3)OCCO4)nn12`, the inhibition was found to be 85.3%. Regarding `Clc1ccccc1-c1nn2c(-c3ccncc3)nnc2s1`, the inhibition is 79.3%. The same measure, in the same setting: the same measure for `O=c1/c(=C\c2cccn2-c2ccccc2)sc2nc3ccccc3n12`: 92%; for `Cc1cccc(OCC(=O)Nc2cccc(-c3nnc(-c4ccccc4)o3)c2)c1C`: 88.1%.

For the compound `Cc1cc(C)n2c(=S)[nH]nc2n1`, the inhibition stood at 71.1%. For the compound `COc1cccc(OCC(=O)Nc2c(C(=O)Nc3ccc(OC)cc3OC)oc3ccccc23)c1`, the inhibition worked out at 88.5%. With `Nc1c(S(=O)(=O)c2cccc(Cl)c2)c2nc3ccccc3nc2n1/N=C/c1ccc(O)c(O)c1`, the half-maximal inhibitory concentration (IC50) is 0.266 µM and the inhibition stood at 96.3%. With `CC(=O)C(C(C)=O)c1c(Cl)c(O)c(O)c2c(C(=O)c3ccccc3)coc12`, the inhibition came out at 93.1%. Still for that read-out and setting: the same measure for `c1csc(-c2nn3c(C4COc5ccccc5O4)nnc3s2)c1` (stereo not drawn): 97.1%.
